Where two headings read alike, the source gives them in different places. One block for each compound: values may come before it.
What was measured:
[1] = molecular target: T1, hCC L68Q variant (Homo sapiens, UniProt P01034, L94Q); experiment: Incubation of supernatants and cellular extracts of hCC-expressing HEK-293T cells with reducing agents, non-reducing SDS-PAGE/Western blot for cystatin C; type: biochemical; conditions: for concentration at which equivalent loss of high molecular signal was observed: supernatants or cell extracts treated in vitro (FIG. 6); for ability to disrupt high molecular weight complexes of L68Q Cyst-C: supernatants or cell extracts treated in vitro, 1 h at 37 C (FIG. 6); for oligomerization of hCC WT and L68Q variant in presence of reducing agent: DTT 50 mM or β-mercaptoethanol 5% in sample buffer, lysates and supernatants; for inhibition at 3000 µM / HMW of secreted hCC L68Q (quantitation): 3 mM; for HMW of secreted hCC L68Q (quantitation) / oligomerization/dimerization levels of secreted hCC L68Q variant in vitro: supernatants, 37° C. for 60 min; for high molecular weight complexes of L68Q Cyst-C: supernatants and cell extracts, 1 h at 37° C. (FIG. 5)
T1 construct: Dashed line represents the N-terminal signal peptide subject to proteolysis; expressed in transfected cells
T1 sequence (P01034 27-146 L94Q): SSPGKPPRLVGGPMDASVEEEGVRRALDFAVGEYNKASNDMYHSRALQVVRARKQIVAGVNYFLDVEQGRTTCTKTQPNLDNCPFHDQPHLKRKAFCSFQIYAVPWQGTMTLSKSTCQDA
Procedure: A plasmid containing a cDNA of CST3 was obtained from Dharmacon (Lafayette, Colo.). The full length coding sequence was amplified with a c-terminal Myc tag by PCR using the forward primer […] All sequences were confirmed by Sanger sequencing. […] After transfection cells were incubated with fresh medium containing puromycin (1 μg/ml) for 3 weeks. After selection, stable clones of each transfectant were generated by limiting dilution.
After clearing the cell lysates by centrifugation (10 minutes, 21,000×g, 4° C.), the supernatants were collected and used for Western blotting. Sample buffer containing SDS, glycerol, Tris-HCl pH 6.8, and bromophenol blue was added to each sample to the following final concentrations: 2% SDS, 10% glycerol, 50 mM Tris-HCl, 0.02% bromophenol blue. In samples that were reduced, either DTT (50 mM final concentration) or β-mercaptoethanol (5% final concentration) were added. […] Proteins were transferred to PVDF membranes (Millipore, Billerica, Mass.) and blotted with anti-hCystatin C, and developed by enhanced chemiluminescence (ECL; Thermo Fisher Scientific). ECL films were scanned, and densities of bands were determined using the gel analysis features of Fiji.^59
(§1) The means and standard deviations of data were calculated. One-sided T-test tests were used to determine the level of significance with respect to the untreated samples, with p<0.05 being considered statistically significant.

[2] = molecular target: T2, secreted hCC L68Q (Homo sapiens, UniProt P01034, L94Q); experiment: Treatment of live HEK-293T cells expressing hCC WT or L68Q with compounds, Western blot of supernatants or lysates; type: cell-based; conditions: for presence of HMW and LMW of secreted hCC L68Q / reduction of HMW and LMW of secreted hCC L68Q: 10 mM; for presence of HMW and LMW of secreted hCC L68Q: 24 h and 48 h time points; for reduction of HMW and LMW of secreted hCC L68Q: 72 h; for effect on oligomerization of secreted hCC L68Q: lower doses (below 10 mM)
T2 construct: Dashed line represents the N-terminal signal peptide subject to proteolysis; expressed in transfected cells
T2 sequence (P01034 27-146 L94Q): T1 sequence (P01034 27-146 L94Q)
Procedure: HEK-293T cells expressing hCC WT or the L68Q variant were washed twice with ice-cold phosphate-buffered saline (PBS) and lysed on ice using a freshly prepared ice-cold cell lysis buffer containing 50 mM Tris-HCl, pH 7.4, 100 mM NaCl, 50 mM β-glycerophosphate, 10% glycerol (w/v), 1% NP-40 (w/v), 1 mM EDTA, 2 mM NaVO4, and a complete, EDTA-free, protein inhibitor cocktail (Roche Applied Science, Mannheim Germany) at 20 μl per mL of lysis buffer. After clearing the cell lysates by centrifugation (10 minutes, 21,000×g, 4° C.), the supernatants were collected and used for Western blotting. Sample buffer containing SDS, glycerol, Tris-HCl pH 6.8, and bromophenol blue was added to each sample to the following final concentrations: 2% SDS, 10% glycerol, 50 mM Tris-HCl, 0.02% bromophenol blue. In samples that were reduced, either DTT (50 mM final concentration) or β-mercaptoethanol (5% final concentration) were added. Equal volumes of lysate or supernatant samples were loaded on NuPAGE 4-12% Bis-Tris gels (Thermo Fisher Scientific, Waltham Mass.) without heating/boiling. Proteins were transferred to PVDF membranes (Millipore, Billerica, Mass.) and blotted with anti-hCystatin C, and developed by enhanced chemiluminescence (ECL; Thermo Fisher Scientific). ECL films were scanned, and densities of bands were determined using the gel analysis features of Fiji.^59
(§2) HEK-239T cells were plated on 6-well plates and cultured for 2 days, at which point reduced glutathione (GSH) (Sigma, St. Louis, Mo.) or N-acetylcystein (NAC) (Sigma) were added to the indicated concentrations. Cells were incubated with compounds for 72 hours, and 100 μl samples of supernatants were removed at 24, 48, and 72 hours. Supernatants were cleared by centrifugation (10 minutes, 21,000×g, 4° C.). Sample buffer containing SDS, glycerol, Tris-HCl pH 6.8, and bromophenol blue was added to each sample to the following final concentrations: 2% SDS, 10% glycerol, 50 mM Tris-HCl, 0.02% bromophenol blue. When indicated, cells were washed with PBS and lysed and cystatin C levels were determined by means of Western blot analysis.
as §1

[3] = test system: HEK-293T cells; experiment: Viability and proliferation of hCC-expressing HEK-293T cells in the presence of reducing agents; type: cell-based, human
Procedure: as §2

[4] = molecular target: T3, Cyst-C L68Q (Homo sapiens, UniProt P01034, L94Q); experiment: Incubation of plasma or brain extracts of Cyst-C L68Q transgenic mice with NAC, non-reducing Western blot; type: biochemical; conditions: 1 h at 37° C.
T3 construct: from tissue; host or cells: plasma and brain extracts of Cyst-C L68Q transgenic mice (from Levy, New York University)
T3 sequence (P01034 27-146 L94Q): T1 sequence (P01034 27-146 L94Q)
Procedure: FIG. 7. High molecular weight complexes of Cyst-C L68Q can be detected in transgenic mice. Short incubation of NAC impairs oligomerization of Cyst-C L68Q on blood and brain extracts. Plasma or brain extracts were incubated in presence of NAC during 1 h at 37° C. with indicated concentrations. Samples were mixed with 2% SDS without reducing agents prior to electrophoresis, and proteins levels were detected by biotinylated anti-cystatin C antibody followed by streptavidin-HRP.
Additional results have been generated from transgenic mice that were obtained from our collaborator Eufrat Levy at New York University. These mice have been transformed with a human genomic DNA which contains the coding sequence of Cyst-C, […] non-coding portions of the gene which may impact expression levels. […] Western blots from the mouse tissue extracts are not as clean as blots from the cell system, as the antibody we use to detect was raised in a mouse. […] Although there are several non-specific high molecular weight bands observed in the non-transgenic samples, a clear high molecular weight “smear” is seen in the transgenic animals, consistent with what we observe in supernatant from the cell culture system.

[5] = molecular target: T4, amyloid-cystatin protein complex aggregates in the skin (Homo sapiens, UniProt P01034, L94Q); experiment: Cystatin C immunostaining of skin biopsies from HCCAA patients (hCC L68Q carriers) on NAC therapy; type: in vivo
T4 construct: from tissue; host or cells: human skin biopsies from HCCAA patients
T4 sequence (P01034 27-146 L94Q): T1 sequence (P01034 27-146 L94Q)
Excerpt: Three 4 mm skin biopsies from the back were taken from each of the three studied individuals. The skin biopsies were formalin-fixed and paraffin-embedded. They were cut into 3 μm sections for immunohistochemistry and immunostained with rabbit polyclonal cystatin C antibody (Sigma, HPA013143) using the EnVision Detection System as previously described.^22 hCC immunoreactivity in the carriers skin biopsies was quantified by semi-automated image analysis using the ImageJ software as previously described.^22 Bright-field images of each section from the carriers were captured using a ×20/0.3 NA objective. RGB color images of the sections were imported to ImageJ. On each image, a rectangular 2000×2000 pixels region of interest (ROI) was defined. Subsequent processing yielding the % area coverage of hCC immunoreactivity within each ROI was performed as previously described^22. […] The second biopsy was taken immediately prior to the family-wide initiation of NAC treatment (600 mg of NAC 3× per day for 6 months). The third biopsy was taken following 6 months of 600 mg 3× per day of NAC therapy.
The proband received 400 mg NAC 4× per day for 9 months followed by 600 mg 3× per day for 6 months. The parent received only the 600 mg 3× per day for 6 months course. The proband never missed a dose; the parent did miss the middle dose 2-3 times per week.

[6] = human, in vivo

Compound: O[C@@H](CS)[C@@H](O)CS [DTT]
oligomerization of hCC WT and L68Q variant in presence of reducing agent [1]: completely abolished

Compound: N[C@@H](CCC(=O)N[C@@H](CS)C(=O)NCC(=O)O)C(=O)O [GSH, glutathione]
inhibition at 3000 µM ([1]; cellular extract, 37° C., read-out: inhibition of the HMW on the intracellular fraction of the L68Q hCC variant (densitometry)): ~50%
inhibition at 3000 µM ([1]; supernatant, 37° C., read-out: inhibition of the HMW in the secreted fraction of the L68Q hCC variant (densitometry)): ~90%
HMW of secreted hCC L68Q (quantitation) [1]: almost complete ablation
amount of dimer and/or HMW oligomer in secreted and intracellular fraction of hCC WT or L68Q variant ([1]; 3 or 10 mM, 37° C.): severely reduced
oligomerization/dimerization levels of secreted hCC L68Q variant in vitro ([1]; 3 or 10 mM): severely reduces
high molecular weight complexes of L68Q Cyst-C [1]: significant reduction
presence of HMW and LMW of secreted hCC L68Q [2]: completely abolished
reduction of HMW and LMW of secreted hCC L68Q [2]: appreciable but incomplete reduction
effect on oligomerization of secreted hCC L68Q ([2]; 24 h and 48 h): only incompletely effective
effect on oligomerization of secreted hCC L68Q ([2]; after 72 h): no significant effect
cell viability for the duration of the experiment ([3]; all concentrations (up to 10 mM), 72 hours): viable
proliferation of the cells ([3]; highest 10 mM concentration (data not shown)): slightly impacted

Compound: CC(=O)N[C@@H](CS)C(=O)O [NAC, N-acetyl cysteine]
HMW of secreted hCC L68Q (quantitation) [1]: almost complete ablation
oligomerization/dimerization levels of secreted hCC L68Q variant in vitro ([1]; 3 or 10 mM): severely reduces
high molecular weight complexes of L68Q Cyst-C [1]: significant reduction
concentration at which equivalent loss of high molecular signal was observed [1]: 10 mM
presence of HMW and LMW of secreted hCC L68Q [2]: completely abolished
reduction of HMW and LMW of secreted hCC L68Q [2]: appreciable but incomplete reduction
dimerization status of the intracellular levels of L68Q hCC ([2]; extracellular treatment of cells (data not shown)): does not appear to impact
effect on oligomerization of secreted hCC L68Q ([2]; 24 h and 48 h): only incompletely effective
effect on oligomerization of secreted hCC L68Q ([2]; after 72 h): no significant effect
Cyst-C monomer [4]: causes the appearance of monomer
high molecular weight smear of transgenic human Cyst-C [4]: reduces this smear
reduction in staining of skin biopsy ([5]; parent), 600 mg 3× per day for 6 months, middle dose missed 2-3 times per week): 50%
progression of amyloid-cystatin stain intensity between skin biopsy #1 and #2 ([5]; proband, on NAC for about 9 months, stopped a few months prior to second biopsy): had not progressed in any significant way
reduction in staining of skin biopsy ([5]; sibling, lower doses of NAC): less obvious
tolerability of oral therapy [6]: well tolerated and without adverse events

Compound: COC(=O)[C@H](CS)NC(C)=O [NAC-methyl ester, N-acetylcysteine methyl ester]
concentration at which equivalent loss of high molecular signal was observed [1]: 1 mM
ability to disrupt high molecular weight complexes of L68Q Cyst-C [1]: retain the ability to disrupt

Compound: OCCS [b-mercaptoethanol]
oligomerization of hCC WT and L68Q variant in presence of reducing agent [1]: completely abolished

Compound: GSSH
high molecular weight complexes of L68Q Cyst-C [1]: does not affect

The next lines start with the values.

concentration at which equivalent loss of high molecular signal was observed [1]: 1 mM
ability to disrupt high molecular weight complexes of L68Q Cyst-C [1]: retain the ability to disrupt
Compound: CC(=O)N[C@@H](CS)C(N)=O

high molecular weight complexes of L68Q Cyst-C [1]: does not affect
Compound: CC(=O)N[C@@H](CO)C(=O)O [NAS, n-acetyl-serine]

Reference: patent US11338009B2 (The Children's Hospital of Philadelphia, priority 2017, dated 2022)
